Experimental findings from publication PMC11436758, “Computer-aided drug design to generate a unique antibiotic family” (Nature Communications, 2024) are described below.

≈ marks a conversion by molar mass, not a printed value.

For test [1], the system named is MRSA (ATCC 33591). Description: MIC, CLSI broth microdilution. The test is classed as cell-based, S. aureus. The settings on record: three individual replicates. The procedure: The medium employed for the assay was Mueller Hinton II Broth (MHB II; Becton-Dickinson, Sparks, MD, USA). Agar plates used for the organisms were trypticase soy agar plus 5% sheep blood (BD; Sparks, MD, USA). MIC assay plates were prepared using the CLSI broth microdilution procedure. Automated liquid handlers (Multidrop 384, Biomek 2000 and Biomek FX) were used to conduct serial dilutions and liquid transfers. A standardized inoculum of each organism was prepared per CLSI methods. Suspensions were prepared to equal a 0.5 McFarland standard, followed by a 1:20 dilution in test media. The inocula were dispensed into sterile reservoirs divided by length (Beckman Colter) and the Biomek 2000 was used to inoculate the plates. Daughter plates were placed on the Biomek 2000 work surface in reverse orientation so that inoculation took place from low to high drug concentration. The Biomek 2000 delivered 10 μL of the diluted suspension into each well. These inoculations yielded a final cell concentration in the daughter plates of ~5 × 10^5 colony-forming units/mL in each well. The wells of the daughter plates ultimately contained 185 μL of broth, 5 μL of drug solution, and 10 μL of bacterial inoculum. Plates were covered with a sterile lid on the top plate, placed in plastic bags, and incubated at 35 °C for ~18 h. The microplates were viewed from the bottom using a plate viewer and the MIC was read. The MIC was recorded as the lowest concentration of drug that inhibited visible growth of the organism. Uninoculated solubility control plates were also observed for evidence of drug precipitation.
For orientation: In broth dilution the organism is exposed to a series of concentrations in liquid medium.

A further test deals with AcpS (Escherichia coli, UniProt P24224). Put plainly: AcpS enzyme activity inhibition (IC50) by DNM compounds, [3H]acetyl-CoA / apo-ACP assay. The test is classed as biochemical. The settings on record: three individual replicates. The source says: The acpP gene encoding ACP was amplified from E. coli genomic DNA and subcloned into the pGEX4T-1 vector. This construct drives the expression of glutathione S-transferase (GST) fused to the ACP open reading frame through a linker containing a consensus sequence for thrombin cleavage. The identity and veracity of acpP was verified by DNA sequencing. BL21 E. coli cells expressing GST-ACP were suspended in ice-cold phosphate buffer saline (PBS) and lysed by sonication. The lysate was made 1% Triton X-100 and rested on ice for 30 min with occasional mixing. A clear supernatant was isolated by centrifugation at 46,000 × g for 30 min, brought to 10 mM MgCl2 and 2 mM MnCl2 and incubated at room temperature for 1 h with occasional mixing. The supplementation of the lysate to 10 mM MgCl2 and 2 mM MnCl2 favors the activity of endogenous ACP phosphodiesterase (acpH) enriching the apo- fraction of GST-ACP. GST-ACP was affinity purified upon binding to glutathione-sepharose. The ACP moiety was eluted from the affinity resin by in-column thrombin digestion. Apo-ACP was separated from holo-ACP and acylated forms of ACP by ion-exchange chromatography on a Mono-Q 5/50 GL at pH 6.1 operated from an AKTA Pure 25 platform. The purity of the apo-ACP preparation was assessed by 20% PAGE on native gels containing 0.5 M urea.
The acpS gene was amplified from S. aureus and E. coli genomic DNA and inserted into a pET23b vector using standard recombinant DNA methodology such that the protein product would result in addition of a C-terminal 6x-His tag in frame with the AcpS open reading frames. The DNA sequences inserted in the vector were sequenced and found to be identical to the known E. coli and S. aureus acpS open reading frames. Recombinant His-Tagged AcpS expression was induced by IPTG addition and overnight culture. Cell lysate was obtained by sequential aspiration through 16, 18 and 21 G needles in a buffer of 50 mM Tris-HCl (pH 8.5), 10 mM MgCl2, 2 mM DTT, 5% glycerol, and further adjusted to pH 8.1 with MES. […] In a typical AcpS enzyme activity assay, 57 µM [^3H]acetyl-CoA, 2 µg apo-ACP, 10 mM MgCl2, 5 mM DTT, 50 mM Na phosphate (pH 7.0), and AcpS in a final volume of 10 µL were incubated at room temperature in a 1.5 mL microcentrifuge tube. At 5, 10, 15, and 20 min 2 µL of reaction were added to 750 µl 10% TCA on ice. Bovine serum albumin (BSA; 20 µl of a 25 mg/mL solution) was then added to facilitate precipitation of radiolabeled protein. The samples were centrifuged at 12,000 × g for 5 min. Supernatants were removed, and the pellets were rinsed twice with 750 µl of 10% trichloroacetic acid. Pellets were resuspended in 50 µl of formic acid and transferred to scintillation vials. 2 mL of scintillation fluid was added, and the amount of [^3H]-labeled holo-ACP formed was quantified by liquid scintillation counting. The enzymatic reaction proceeded in a linear manner depending on time (10–40 min) and enzyme concentration (1–5 nM). Routinely, each data point was determined at least by triplicate.

The subject of test [2] is MRSA (ATCC 33591). Put plainly: Rabbit ischemic ear wound model of infection by MRSA, topical treatment. It is filed as in vivo, New Zealand White rabbits. The settings on record: for reduction in bacterial survival as compared to vehicle control: quantitative microbiology at day 14, topical; for wound closure: topical for 14 days, versus vehicle control. The procedure: New Zealand White rabbits from Charles River were employed for this study. Both male and female rabbits were used; sample size prevented disaggregation of data by sex. Investigators were blinded to group allocation, data collection, and data analysis. Food and water were given ad libidum and animals were acclimatized for 7 days with photoperiods of alternating 12 h light and dark at 21 °C in relative humidity of 40–50%. The formulation for delivery of DNM compounds was Glaxal base (WellSpring Pharmaceutical Canada Corp., Oakville, Canada). Formulation was performed by dissolving compound in Glaxal base to give final concentrations of 1% or 2% DNM compound (w/v). The analgesic (Buprenex 0.02 mg/kg sc) and anesthesia (isoflurane (0.5–5% with oxygen carrier 0.5–2 L/min) were used as required during procedures. An ischemia wound healing model was conducted surgically. Each wound was inoculated with 50 μl of 2 × 10^7 CFU/mL MRSA (ATCC #33591) and dressed. After 1 day, wounds were treated with either 50 μl control cream containing vehicle or 50 μl cream containing compound daily. Wounds were assessed and observations recorded using the Draize scoring system. Digital photographs of each wound were obtained and documented.

Chain of AcpS (P24224 2-126): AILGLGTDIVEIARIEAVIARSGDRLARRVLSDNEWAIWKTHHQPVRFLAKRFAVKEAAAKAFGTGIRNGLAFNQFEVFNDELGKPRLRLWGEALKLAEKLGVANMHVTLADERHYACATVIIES

Broadly, the MIC is the least concentration at which growth counts as inhibited. Low readings indicate inhibition by little substance, high ones a need for much substance. In the test with MRSA (ATCC 33591) [1], `Clc1ccc(-c2cc(-c3nnn[nH]3)c(-c3ccc(Cl)cc3)s2)cc1` [DNM0213] returned an MIC of 2 µg/mL (≈ 5.36 µM).
Still for that read-out and setting: then `Cc1ccc(-c2cc(-c3nnn[nH]3)cc(-c3ccc(C)c4ccccc34)c2)c2ccccc12` [DNM0461], with 0.5 µg/mL (≈ 1.17 µM).
As a reminder, the IC50 is the point on the concentration scale where inhibition reaches its midpoint. Low values mean inhibition by little substance, high ones a need for much substance. With `c1ccc(-c2ccccc2-c2cc(-c3nnn[nH]3)cc(-c3ccccc3-c3ccccc3)c2)cc1` [DNM0464], inhibition of growth against MRSA (ATCC 33591) [1] (MIC) required 0.5 µg/mL (≈ 1.11 µM). At AcpS, this compound gave an IC50 of 9 µM.
For `Clc1ccc(-c2sc(-c3ccccc3-c3ccccc3)cc2-c2nnn[nH]2)cc1` [DNM0466] the same measures were 1 µg/mL (≈ 2.41 µM) and 9 µM.
For `Cc1ccc(-c2sc(-c3ccccc3-c3ccccc3)cc2-c2nnn[nH]2)c2ccccc12` [DNM0472] the same measures were 2 µg/mL (≈ 4.5 µM) and 10 µM.
For `Cc1ccc(-c2sc(-c3ccc(Cl)cc3)cc2-c2nnn[nH]2)c2ccccc12` [DNM0473], in that order: 2 µg/mL (≈ 4.96 µM) and 10 µM.
Regarding `Cc1ccc(-c2cc(-c3nnn[nH]3)c(-c3ccccc3-c3ccccc3)s2)c2ccccc12` [DNM0478], inhibition of growth in the test with MRSA (ATCC 33591) [1] (MIC) required 1 µg/mL (≈ 2.25 µM). At AcpS, this compound gave an IC50 of 8 µM.
For `Clc1ccc(-c2cc(-c3nnn[nH]3)cc(-c3ccccc3-c3ccccc3)c2)cc1` [DNM0479] the same measures were 1 µg/mL (≈ 2.45 µM) and 9 µM.
For `Cc1ccc(-c2cc(-c3ccc(Cl)cc3)cc(-c3nnn[nH]3)c2)c2ccccc12` [DNM0480] the same measures were 2 µg/mL (≈ 5.04 µM) and 8 µM.
In the test with MRSA (ATCC 33591) [1], `Clc1ccc(-c2cc(-c3nnn[nH]3)sc2-c2ccc(Cl)cc2)cc1` [DNM0487] yielded an MIC of 2 µg/mL (≈ 5.36 µM). The compound also displayed an IC50 against AcpS of 1 µM. Moreover, in the test with MRSA (ATCC 33591) [2], the “reduction in bacterial survival as compared to vehicle control” value is on record as over 99% and the wound closure entry was “significantly improved wound closure”.
Compound `Cc1cc(Cl)ccc1-c1cc(-c2nnn[nH]2)sc1-c1ccc(Cl)cc1C` [DNM0488] gave an MIC against MRSA (ATCC 33591) [1] of 2 µg/mL (≈ 4.98 µM). For the same compound, the IC50 at AcpS amounted to 9 µM.
For `c1ccc(-c2ccccc2-c2cc(-c3nnn[nH]3)sc2-c2ccccc2-c2ccccc2)cc1` [DNM0489], in that order: 2 µg/mL (≈ 4.38 µM) and 10 µM.
For `Clc1cccc(-c2ccccc2-c2cc(-c3nnn[nH]3)cc(-c3ccccc3-c3cccc(Cl)c3)c2)c1` [DNM0493] the same measures were 2 µg/mL (≈ 3.85 µM) and 14 µM.
For `Cc1ccc(-c2ccccc2-c2cc(-c3nnn[nH]3)c(-c3ccccc3-c3ccc(C)c(C)c3)s2)cc1C` [DNM0495], in that order: 2 µg/mL (≈ 3.9 µM) and 10 µM.
In turn, `c1ccc2c(c1)oc1c(-c3cc(-c4nnn[nH]4)sc3-c3cccc4c3oc3ccccc34)cccc12` [DNM0542] registered an MIC with MRSA (ATCC 33591) [1] of 1 µg/mL (≈ 2.06 µM). Also, on AcpS, it took 12 µM to reach half-maximal inhibition (IC50).
For `CC(C)(C)c1ccc(-c2cc(-c3nnn[nH]3)sc2-c2ccc(C(C)(C)C)cc2)cc1` [DNM0546] the same measures were 2 µg/mL (≈ 4.8 µM) and 16 µM.
For `CC(C)c1cc(Cl)ccc1-c1cc(-c2nnn[nH]2)sc1-c1ccc(Cl)cc1C(C)C` [DNM0548], in that order: 2 µg/mL (≈ 4.37 µM) and 8 µM.
For `c1ccc(-c2cc(-c3nnn[nH]3)sc2-c2ccccc2-c2ccsc2)c(-c2ccsc2)c1` [DNM0559] the same measures were 1 µg/mL (≈ 2.13 µM) and 9 µM.
With `CC(C)c1cc(Cl)ccc1-c1cc(C(=O)O)sc1-c1ccc(Cl)cc1C(C)C` [DNM0566], it took 1 µg/mL (≈ 2.31 µM) to inhibit growth with MRSA (ATCC 33591) [1] (MIC). In addition, the IC50 against AcpS was 13 µM.
In turn, `Clc1ccc(Cc2sc(-c3nnn[nH]3)cc2-c2cccc(CC3CCCC3)c2)cc1` [DNM0610] displayed an MIC against MRSA (ATCC 33591) [1] of 1 µg/mL (≈ 2.3 µM). The compound also registered an IC50 against AcpS of 9 µM.
In the test on MRSA (ATCC 33591) [1], `Cc1cc(Cl)ccc1-c1sc(-c2nnn[nH]2)c(C)c1-c1ccc(Cl)cc1C` [DNM0614] showed an MIC of 1 µg/mL (≈ 2.41 µM). Also, 13 µM corresponded to half-maximal inhibition against AcpS (IC50). Besides, in the test on MRSA (ATCC 33591) [2], the “reduction in bacterial survival as compared to vehicle control” value is over 99% and the wound closure entry is “significantly improved wound closure”.
Compound `CCCCc1cccc(-c2cc(-c3nnn[nH]3)sc2Cc2ccccc2)c1` [DNM0626] returned an MIC against MRSA (ATCC 33591) [1] of 0.5 µg/mL (≈ 1.34 µM). Also, the IC50 against AcpS came to 9 µM.
For `CCCCc1cccc(-c2sc(-c3nnn[nH]3)c(C)c2-c2cccc(CCCC)c2)c1` [DNM0627] the same measures were 0.25 µg/mL (≈ 0.581 µM) and 10 µM.
The compound `Cc1ccc(-c2cc(-c3nnn[nH]3)sc2[C@@H]2CCCc3ccccc32)c2ccccc12` [DNM0636] had an MIC in the test on MRSA (ATCC 33591) [1] of 2 µg/mL (≈ 4.73 µM). Inhibition on AcpS was half-maximal at 13 µM (IC50).
